Key:
AKT = assay: Western blot of phospho(Ser473)-AKT and total AKT; assay type: cell-based, human; conditions: A2780, 24 h at 72 h IC50 dose, vs controls
Method: (§1) After drug treatments, cells were lysed in RIPA buffer supplemented with a cocktail of protease and phosphatase inhibitors. […] To favor the electrophoretic separation, 25% sample loading buffer (SLB) was added to the cell lysates. Here, 20 µg samples of proteins from controls and treated cells were loaded on 4–20% pre-cast SDS-PAGE gels and blotted onto PVDF membranes. Primary antibodies Bcl-2 (1:1000 dilution,#sc-7382, Santa Cruz, Dallas, Texas USA), Bax (1:1000 dilution, #sc-493, Santa Cruz), OXPHOS cocktail (1:1000 dilution, #ab110413, AbCam, Cambridge, UK), citrate synthase (1:1000 dilution, #sc-515640, Santa Cruz), ASK1 (1:1000 dilution, #sc-390275, Santa Cruz), phospho(Thr838)-ASK1 (1:1000 dilution, #CPA6042, Cohesion Biosciences, London, UK), AKT (1:1000 dilution, #sc-5298, Santa Cruz), and phospho(Ser473)-AKT (1:1000 dilution, #GTX128414, GeneTex, Irvine, CA, USA) were added to 2% non-fat dry milk in PBS-tween solution, while PVDF membranes were incubated overnight at 4 °C. Then, membranes were treated with horseradish peroxidase (HRP)-conjugated secondary antibodies (1:5000 dilution, Santa Cruz) and immunoreactive bands were detected with an ECL kit detection system on an Amersham Imager 600 (GE Healthcare, Chicago, IL, USA). For the quantification, a densitometric analysis of the bands was performed using ImageJ2 software version 2.0.0-rc-64 [23]. The intensities of the immunostained bands were normalized on the Coomassie brilliant blue R-250-stained total protein from the same PVDF membrane.

[1] = test system: mitochondrial respiration of A2780 cells; assay: Oxygen consumption rate (Clark-type O2 electrode); assay type: cell-based, human; conditions: A2780, 24 h at 72 h IC50 dose, compared to controls
Method: (§2) The analysis of the oxygen consumption rate (OCR) was performed using a Clark-type O2 electrode inserted in a thermostated airtight chamber (Oxygraph Plus System, Hansatech Instruments, King’s Lynn, Norfolk, UK). Briefly, control and treated cells (12 and 24 h) were trypsinized, washed with PBS, and suspended in culture medium to measure the steady state OCR for 10 min. The OCR values, expressed as nmol of consumed O2/mL/min, were normalized to the cellular protein content. To evaluate the response of complex I, complex II/III, and ATP-synthase-driven OCRs in the presence or absence of gold-treatment, we used the protocol described by Baracca et al.. Cells were trypsinized, washed, and resuspended in buffer containing sucrose, TRIS-HCl, MgSO4, EDTA, and KH2PO4. Cell suspension was treated with digitonin to allow cell membrane permeabilization. To stimulate complex I, 250 mM glutamate/malate was added, whereas to stimulate complex II, 250 mM succinate was added (state 2 respiration). Then, to induce ATP-synthase-driven mitochondrial respiration, 10 mM ADP was added (state 3 respiration). To estimate the mitochondrial respiratory capacity, defined as the respiratory control ratio (RCR), state 3/state 2 ratios were calculated for control and treated cells.

OXPHOS complex I = assay: Western blot of OXPHOS complex I content; assay type: cell-based, human; conditions: A2780, 24 h at 72 h IC50 dose, vs controls
Method: as §1

OXPHOS complex II = assay: Western blot of OXPHOS complex II content; assay type: cell-based, human; conditions: A2780, 24 h at 72 h IC50 dose, vs controls
Method: as §1

[2] = test system: complex I-driven mitochondrial respiration; assay: Respiratory control ratio, complex I-driven respiration in permeabilized cells; assay type: cell-based, human; conditions: permeabilized A2780, 24 h treatment; control about 3.1
Method: as §2

ASK1 = assay: Western blot of phospho(Thr838)-ASK1 and total ASK1; assay type: cell-based, human; conditions: A2780, 24 h at 72 h IC50 dose, vs controls
Method: as §1

caspase-8 = assay: FAM-FLICA caspase-8 activation, flow cytometry; assay type: cell-based, human; conditions: A2780, 72 h at 72 h IC50 dose, compared to controls
Method: (§3) In addition, caspase-3, caspase-8, and caspase-9 activation was assessed in treated and untreated cells. Likewise, cells were trypsinized, washed with PBS, and suspended in FAM-FLICATM caspase solution (FAM-DEVD-FMK caspase FLICA kit, ImmunoChemistry Technologies, MN 55431 USA) for 30 min at 37 °C. Cells were then washed twice with PBS and analyzed using a FACSCantoII flow cytometer (BD Biosciences, New Jersey, USA).

[3] = test system: PNT1 (human normal prostate epithelium) cells; assay: MTT antiproliferative assay on PNT1 cells; assay type: cell-based; conditions: for IC50: 72 h of treatment, MTT assay, mean ± SD of three experiments, read-out: Half-maximal inhibitory concentration (IC50), PNT1; for IC50 for PNT1 higher than for A2780 (fold): ratio of 72 h IC50 PNT1 / A2780
Method: (§4) The inhibition of cell proliferation by Au2phen, Auoxo6, and AuL12 on A2780 cell line was evaluated through MTT (3-(4,5-dimethylthiazol-2-yl)-2,5-diphenyltetrazolium bromide) test. Viable cells can convert MTT into formazan, which is coloured and detectable at 595 nm. Exponentially growing cells were seeded in 96 well-microplates at a density of 8 × 10^3 for 24 h and then gold compounds were added in fresh RPMI medium at concentrations ranging from 0.003 to 100 µM and incubated for 72 h. On the day of the test, cells were treated with 0.5 mg/mL MTT for 1 h at 37 °C. Following precipitation, blue formazan was dissolved in DMSO, and the optical density was read in a microplate reader interfaced with Microplate Manager/PV version 4.0 software (BioRad Laboratories, Hercules, USA). From the absorbance measurements, the half-maximal inhibitory concentration (IC50) value of each compound on A2780 cells was calculated using GraphPad Prism software version 6.0 (Graphpad Holdings, LLC, USA). The same protocol was applied on non-tumor cell lines, i.e., HEK and PNT1 cells.

Bax = assay: Western blot of Bax content; assay type: cell-based, human; conditions: A2780, 48 h at 72 h IC50 dose, compared to controls
Method: as §1

[4] = test system: A2780 human ovarian cancer cell line; assay: MTT antiproliferative assay on A2780 cells; assay type: cell-based; conditions: for IC50: 72 h of treatment, MTT assay, mean ± SD of three experiments, read-out: Half-maximal inhibitory concentration (IC50), A2780; for cytotoxic potency on A2780 higher than that of AuL12 (fold): from 72 h IC50 values on A2780
Method: as §4
The effects of these 72 h exposure IC50 doses on A2780 cell viability were also evaluated using an MTT time course assay at 12, 24, 48, and 72 h of drug exposure. The experimental protocol described above was applied.

caspase-9 = assay: FAM-FLICA caspase-9 activation, flow cytometry; assay type: cell-based, human; conditions: A2780, 72 h at 72 h IC50 dose, compared to controls
Method: as §3

caspase-3 = assay: FAM-FLICA caspase-3 activation, flow cytometry; assay type: cell-based, human; conditions: A2780, 72 h at 72 h IC50 dose, compared to controls
Method: as §3

Structure (SMILES)	reduction of phospho-AKT levels (phosphorylated-AKT/total AKT ratio) (AKT)	reduction of oxygen consumption rate (OCR) [1] [%]	decrease of complex I protein content (OXPHOS complex I) [%]	decrease of complex II protein content (OXPHOS complex II) [%]	respiratory control ratio (RCR), complex I-driven [2]	enhancement of phospho-ASK1 levels (phosphorylated-ASK1/total ASK1 ratio) (ASK1)	cells showing caspase-8 activation (caspase-8)	IC50 [3] [µM]	IC50 for PNT1 higher than for A2780 (fold) [3]	increase of proapoptotic Bax protein (Bax)	IC50 [4] [µM]	cytotoxic potency on A2780 higher than that of AuL12 (fold) [4] [fold]	cells showing caspase-9 activation (caspase-9)	caspase-3 activation (fluorescence intensity) (caspase-3)
Cc1ccc2ccc3ccc(C)[n+]4c3c2[n+]1[Au-]41[O][Au-]2([O]1)[n+]1c(C)ccc3ccc4ccc(C)[n+]2c4c31.F[P-](F)(F)(F)(F)F.F[P-](F)(F)(F)(F)F [Au2phen, ((2,9-dimethyl-1,10-phenanthroline)2Au2(µ-O)2)(PF6)2]	about 12%	26.8	48	66	about 1.8	about 15%	around 50%	11.8 ± 0.25	about 14 fold	about 29%	0.8 ± 0.02	5	60%	~ 40%
CCOC(=O)CN(C)C1=[S+][Au-]([Br])([Br])[S]1 [AuL12, dibromo(ethylsarcosinedithiocarbamate)gold(III), reference compound]	~17%	18	28	40	2.3	about 25%	~ 30%	12.3 ± 0.17	3 fold	~34%	4 ± 0.03		~ 30%	~ 40%
Cc1cccc2[n+]1[Au-]1([O][Au-]3([O]1)[n+]1c(C)cccc1-c1cccc(C)[n+]13)[n+]1c(C)cccc1-2.F[P-](F)(F)(F)(F)F.F[P-](F)(F)(F)(F)F [Auoxo6, ((6,6′-dimethyl-2,2′-bipyridine)2Au2(µ-O)2)(PF6)2]	~19%	24.7	50	70	2.1	about 23%	~70%	18.4 ± 0.3	~16 fold	~20%	1.14 ± 0.18	3.5	75%	about 80%

Source: PMC8389655, “Au2phen and Auoxo6, Two Dinuclear Oxo-Bridged Gold(III) Compounds, Induce Apoptotic Signaling in Human Ovarian A2780 Cancer Cells” (Biomedicines, 2021)
